From PubChem BioAssay AID330 (DTP/NCI, 2004)
“And” between values parts separate entries of the source, which are not always exact repeats. Equal values may be shown once. Toxic doses and inconclusive results are not listed. How the source made its calls: active means survival T/C of 150% or more; inactive means T/C below 125% in these data.

Test system: P388 leukemia ip, CD2F1 mice, survival T/C
Assay: NCI In Vivo Anticancer Drug Screen. Data for tumor model P388 Leukemia (intraperitoneal) in CD2F1 (CDF1) mice
Conditions: endpoint: median survival time, higher = longer survival
Summary of the method: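 Mice carrying the transplanted tumor received test compound or vehicle. Survival was recorded in each group, and the value is the treated-group measurement divided by that of the vehicle-treated control group.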

[1] = dose: 400.0 mg/kg/injection, schedule: Q04DX002 (ip), vehicle: saline
[2] = dose: 50.0 mg/kg/injection, schedule: Q01DX009 (ip), vehicle: saline with Tween-80
[3] = dose: 50.0 mg/kg/injection, schedule: Q01DX005 (ip), vehicle: Klucel (hydroxypropylcellulose) (HPC)
[4] = dose: 60.0 mg/kg/injection, schedule: Q01DX005 (ip), vehicle: saline with Tween-80
[5] = dose: 120.0 mg/kg/injection, schedule: Q01DX005 (ip), vehicle: saline with Tween-80
[6] = dose: 240.0 mg/kg/injection, schedule: Q01DX005 (ip), vehicle: saline with Tween-80
[7] = dose: 50.0 mg/kg/injection, schedule: Q01DX005 (ip), vehicle: saline with Tween-80
[8] = dose: 100.0 mg/kg/injection, schedule: Q01DX005 (ip), vehicle: saline with Tween-80
[9] = dose: 200.0 mg/kg/injection, schedule: Q01DX005 (ip), vehicle: saline with Tween-80
[10] = dose: 12.5 mg/kg/injection, schedule: Q01DX009 (ip), vehicle: saline
[11] = dose: 25.0 mg/kg/injection, schedule: Q01DX009 (ip), vehicle: saline
[12] = dose: 50.0 mg/kg/injection, schedule: Q01DX009 (ip), vehicle: saline
[13] = dose: 100.0 mg/kg/injection, schedule: Q01DX009 (ip), vehicle: saline with Tween-80
[14] = dose: 200.0 mg/kg/injection, schedule: Q01DX009 (ip), vehicle: saline with Tween-80
[15] = dose: 100.0 mg/kg/injection, schedule: Q01DX009 (ip), vehicle: saline
[16] = dose: 200.0 mg/kg/injection, schedule: Q01DX009 (ip), vehicle: saline

Measured: T/C

NNc1nn2cnnc2c2ccccc12
inactive: dose: 6.25 mg/kg/injection, schedule: Q04DX002 (ip), vehicle: saline 100 % of control and 96 % of control | dose: 12.5 mg/kg/injection, schedule: Q04DX002 (ip), vehicle: saline 98 % of control and 99 % of control and 96 % of control | dose: 25.0 mg/kg/injection, schedule: Q04DX002 (ip), vehicle: saline 100 % of control and 122 % of control and 97 % of control | dose: 50.0 mg/kg/injection, schedule: Q04DX002 (ip), vehicle: saline 101 % of control and 104 % of control and 94 % of control | [1] 88 % of control

O=c1[nH]cnc2[nH]ccc12
inactive: [2] 106 % of control

O=C1NC(=O)/C(=C\c2ccccc2)C2=C1CCCC2
inactive: dose: 12.5 mg/kg/injection, schedule: Q01DX005 (ip), vehicle: Klucel (hydroxypropylcellulose) (HPC) 103 % of control | dose: 25.0 mg/kg/injection, schedule: Q01DX005 (ip), vehicle: Klucel (hydroxypropylcellulose) (HPC) 103 % of control | [3] 108 % of control

[Se]=P(N1CCOCC1)(N1CCOCC1)N1CCOCC1
inactive: dose: 13.75 mg/kg/injection, schedule: Q01DX001 (ip), vehicle: Klucel (hydroxypropylcellulose) (HPC) 101 % of control | dose: 27.5 mg/kg/injection, schedule: Q01DX001 (ip), vehicle: Klucel (hydroxypropylcellulose) (HPC) 104 % of control

C1CCC2OCCOCCOC3CCCCC3OCCOCCOC2C1 (stereo not drawn)
inactive: dose: 12.5 mg/kg/injection, schedule: Q01DX009 (ip), vehicle: Klucel (hydroxypropylcellulose) (HPC) 95 % of control and 96 % of control | dose: 25.0 mg/kg/injection, schedule: Q01DX009 (ip), vehicle: Klucel (hydroxypropylcellulose) (HPC) 114 % of control and 91 % of control

N#CC(C(=O)CCCC(=O)Nc1ccc(Cl)cc1)c1ccccc1Cl (stereo not drawn)
inactive: [4] 113 % of control | [5] 113 % of control | [6] 106 % of control

COC1=CP(C)(=S)CC1 (stereo not drawn)
inactive: dose: 100.0 mg/kg/injection, schedule: Q04DX003 (ip), vehicle: Klucel (hydroxypropylcellulose) (HPC) 112 % of control | dose: 200.0 mg/kg/injection, schedule: Q04DX003 (ip), vehicle: Klucel (hydroxypropylcellulose) (HPC) 98 % of control

CSc1nc2ccc(N=Cc3ccccc3O)cc2s1
inactive: dose: 50.0 mg/kg/injection, schedule: Q01DX009 (ip), vehicle: Klucel (hydroxypropylcellulose) (HPC) 91 % of control | dose: 100.0 mg/kg/injection, schedule: Q01DX009 (ip), vehicle: Klucel (hydroxypropylcellulose) (HPC) 89 % of control | dose: 200.0 mg/kg/injection, schedule: Q01DX009 (ip), vehicle: Klucel (hydroxypropylcellulose) (HPC) 100 % of control

CCCCCCN(CCCCCC)CC(O)c1cc2c(c3ccccc13)CCCC2 (stereo not drawn)
inactive: [7] 94 % of control | [8] 103 % of control | [9] 103 % of control

Cc1ccc2c(CC(C)(C)[N+]3(C)CCCC3)ccc(C(C)C)cc1-2
inactive: dose: 100.0 mg/kg/injection, schedule: Q04DX002 (ip), vehicle: Klucel (hydroxypropylcellulose) (HPC) 114 % of control | dose: 200.0 mg/kg/injection, schedule: Q04DX002 (ip), vehicle: Klucel (hydroxypropylcellulose) (HPC) 112 % of control | dose: 400.0 mg/kg/injection, schedule: Q04DX002 (ip), vehicle: Klucel (hydroxypropylcellulose) (HPC) 105 % of control

COc1cc2cc(-c3ccc(Cl)c(Cl)c3)[n+](C)cc2cc1OC
inactive: [10] 106 % of control | [11] 94 % of control | [12] 98 % of control

CCN(CC)CCCNc1nccc2c(C)c3[nH]c4ccncc4c3cc12
active: dose: 0.5 mg/kg/injection, schedule: Q04DX003 (ip), vehicle: other 162 % of control | dose: 0.58 mg/kg/injection, schedule: Q04DX003 (ip), vehicle: other 155 % of control | dose: 0.97 mg/kg/injection, schedule: Q04DX003 (ip), vehicle: other 156 % of control | dose: 1.62 mg/kg/injection, schedule: Q04DX003 (ip), vehicle: other 182 % of control | dose: 2.7 mg/kg/injection, schedule: Q04DX003 (ip), vehicle: other 189 % of control | dose: 3.24 mg/kg/injection, schedule: Q04DX002 (ip), vehicle: other 170 % of control and 175 % of control | dose: 3.89 mg/kg/injection, schedule: Q04DX002 (ip), vehicle: other 179 % of control | dose: 4.5 mg/kg/injection, schedule: Q04DX003 (ip), vehicle: other 196 % of control | dose: 5.4 mg/kg/injection, schedule: Q04DX002 (ip), vehicle: other 168 % of control and 185 % of control | dose: 6.48 mg/kg/injection, schedule: Q04DX002 (ip), vehicle: other 213 % of control | dose: 7.5 mg/kg/injection, schedule: Q04DX003 (ip), vehicle: other 182 % of control | dose: 9.0 mg/kg/injection, schedule: Q04DX002 (ip), vehicle: other 200 % of control and 207 % of control | dose: 10.8 mg/kg/injection, schedule: Q04DX002 (ip), vehicle: other 194 % of control | dose: 15.0 mg/kg/injection, schedule: Q04DX002 (ip), vehicle: other 200 % of control and 217 % of control | dose: 18.0 mg/kg/injection, schedule: Q04DX002 (ip), vehicle: other 215 % of control
inactive: dose: 0.5 mg/kg/injection, schedule: Q04DX003 (iv), vehicle: other 110 % of control | dose: 1.0 mg/kg/injection, schedule: Q04DX003 (iv), vehicle: other 110 % of control | dose: 2.0 mg/kg/injection, schedule: Q04DX003 (iv), vehicle: other 112 % of control | dose: 4.0 mg/kg/injection, schedule: Q04DX003 (iv), vehicle: other 122 % of control

N#CCc1ccc([N+](=O)[O-])cc1C(=O)O
inactive: [7] 104 % of control | [8] 104 % of control | [9] 101 % of control

O=C(NC(=O)Nc1ccc(Cl)cc1)NC(=O)c1ccccc1F
inactive: [2] 114 % of control | [13] 101 % of control | [14] 95 % of control

CCN(CC)C1=Nc2ccccc2N(c2ccccc2)C(=S)C1
inactive: [3] 106 % of control | dose: 100.0 mg/kg/injection, schedule: Q01DX005 (ip), vehicle: Klucel (hydroxypropylcellulose) (HPC) 103 % of control | dose: 200.0 mg/kg/injection, schedule: Q01DX005 (ip), vehicle: Klucel (hydroxypropylcellulose) (HPC) 100 % of control

Cc1ccc(S(=O)(O)=S)cc1
inactive: [12] 101 % of control | [15] 107 % of control | dose: 100.0 mg/kg/injection, schedule: Q04DX002 (ip), vehicle: saline 105 % of control | [16] 115 % of control | dose: 200.0 mg/kg/injection, schedule: Q04DX002 (ip), vehicle: saline 101 % of control | [1] 102 % of control

Cc1cc2ccccc2cc1N
inactive: [12] 106 % of control | [15] 100 % of control | [16] 97 % of control

OCc1ccn2c1C(O)CC2 (stereo not drawn)
inactive: [10] 124 % of control | [12] 113 % of control
active: [15] 201 % of control | [16] 157 % of control

Cc1ccc(NC(=O)c2ccc(Cl)cc2Cl)cc1C
inactive: [13] 95 % of control | [14] 104 % of control | dose: 400.0 mg/kg/injection, schedule: Q01DX009 (ip), vehicle: saline with Tween-80 100 % of control

CC1(C)NC(C(=O)O)Cc2c1[nH]c1ccccc21 (stereo not drawn)
inactive: [11] 102 % of control | [12] 91 % of control | [15] 94 % of control

COc1cc(C(c2cc3c(cc2O)OCO3)N2CCN(C(c3cc(OC)c(O)c(OC)c3)c3cc4c(cc3O)OCO4)CC2)cc(OC)c1O (stereo not drawn)
inactive: [4] 91 % of control | [5] 89 % of control | [6] 91 % of control

COc1cc([C@@H]2c3cc4c(cc3C[C@H]3COC(=O)[C@@H]32)OCO4)cc2c1OCO2
inactive: dose: 1.8 mg/kg/injection, schedule: Q01DX009 (ip), vehicle: distilled water + Tween-80 113 % of control | dose: 3.0 mg/kg/injection, schedule: Q01DX009 (ip), vehicle: Klucel (hydroxypropylcellulose) (HPC) 109 % of control | dose: 3.75 mg/kg/injection, schedule: Q01DX009 (ip), vehicle: distilled water + Tween-80 95 % of control | dose: 6.0 mg/kg/injection, schedule: Q01DX009 (ip), vehicle: Klucel (hydroxypropylcellulose) (HPC) 118 % of control | dose: 12.0 mg/kg/injection, schedule: Q01DX009 (ip), vehicle: Klucel (hydroxypropylcellulose) (HPC) 122 % of control

O=CC(O)C(O)C(O)C(O)C(O)C#CC#CC(O)C(O)C(O)C(O)C(O)C=O (stereo not drawn)
inactive: dose: 50.0 mg/kg/injection, schedule: Q01DX005 (ip), vehicle: saline 100 % of control | dose: 100.0 mg/kg/injection, schedule: Q01DX005 (ip), vehicle: saline 105 % of control | dose: 200.0 mg/kg/injection, schedule: Q01DX005 (ip), vehicle: saline 92 % of control
